Measurements as given in patent publication US11680086B2, “Lipopeptide for potently inhibiting HIV, derivative thereof, pharmaceutical composition thereof and use thereof” (Institute of Pathogen Biology, Chinese Academy of Medical …, priority 2017, dated 2023).
Peptide text beside a SMILES is read from it. * marks the point of attachment. X1 = Cc1c(C)c2c(c(C)c1OC(=O)CCC(=O)*)CCC(C)(CCCC(C)CCCC(C)CCCC(C)C)O2; Stearoyl = CCCCCCCCCCCCCCCCCC(=O)*; Palmitoyl = CCCCCCCCCCCCCCCC(=O)*

Assays:
[1] = test system: 35 HIV-1 pseudoviruses (subtypes A, B, B', C, G, A/C, A/E, B/C); settings: for IC50: read-out: average IC50 for inhibition of various types of HIV-1 pseudoviruses, average over 35 pseudoviruses; for inhibitory activity against different subtypes of HIV-1 as folds of T-20: relative to T-20, from average IC50
Text: HIV-1 pseudovirus-mediated cell entry inhibition assay: basic steps included: (1) Preparation of HIV-1 pseudovirus: the 293T cells were co-transfected with a plasmid expressing the envelope protein (Env) of HIV-1 strain NL4-3 (i.e., a recombinant expression plasmid obtained by inserting the gene encoding the envelope protein (ENV) of the D36G mutant of the HIV-1 strain NL4-3 in the Table 2 of the Reference 14 listed in the Background Art into the vector pcDNA3.1(−)) and the HIV-1 backbone plasmid pSG3Δenv (provided by the AIDS Reagent Program of National Institutes of Health (NIH), catalog number: 11051) by using a cell transfection reagent, incubated in a cell incubator of 37° C. and 5% CO2 for 6 hours, and then the medium was changed, and the cells were further incubated for 48 hours. The cell culture supernatant containing pseudovirus particles was pipetted and filtered with a 0.45 μm filter to collect the supernatant, then 20% fetal bovine serum (FBS) was added thereto, the final solution was transferred to a polypropylene tube, and stored at −80° C. for ready for use or directly subjected to virus titration. (2) Titration of HIV-1 pseudovirus: the viruses were diluted by 5 folds in a 96-well plate, and 4 replicate wells with 8 gradients were set to a final volume of 100 microliters. The TZM-b1 cells were trypsinized and counted, and the cells were diluted to 1×10^5 cells/ml with DMEM complete medium; 100 μl of cells dilution (containing 15 μg/ml DEAE-dextran) per well were added and cultured at 37° C. and 5% CO2 for 48 hours. The 96-well plate was then taken from the cell culture incubator. The supernatant was discarded from the wells. To each well, 30 μl of a cell lysate was added, and after 10 minutes, 100 μl of a luciferase detection reagent was added. 100 μl of liquid was pipetted from each well and added to a corresponding 96-well white plate, and the luminescence values were read by a microplate photometer. The virus titer was calculated by the Reed-Muench method. (3) Antiviral activity assay: the test substance was dissolved in DMSO and diluted with a cell culture solution by 3 folds, and placed in a 96-well plate at a final volume of […]. 50 μl of a DMEM medium was used in place of the test substance as a negative control. To each well, 100 μl of TZM-b1 target cells solution (containing 15 μg/ml DEAE-dextran) at a concentration of 1×10^5 cells/ml was added, and then 50 μl (corresponding to 100 TCID50 per well) of the HIV-1 pseudovirus obtained above was added. After incubation at 37° C. and 5% CO2 for 48 hours, the relative light units (RLU) of each well were determined by using a luciferase detection reagent (Promega). Inhibition rate (%) and IC50 value were calculated.
Among them, the A, B and C subtypes were the main viruses causing AIDS epidemic in the world, while B/C and A/E recombinant viruses were the main viruses in China. […] Among the Env expression plasmids used for the preparation of pseudoviral, except that the Env expression plasmids used for preparation of PVO, Du156 and CAP 210.2.00.E8 were obtained from the AIDS Reagent Program of NIH in the United states, other plasmids were preserved by the laboratory of Prof. He Yuxian, Institute of Pathogen Biology, Chinese Academy of Medical Sciences, please see the References 13, 14 and 18 listed in the Background Art and articles of Chong et al. (Chong H, Yao X, Zhang C, Cai L, Cui S, Wang Y, He Y. Biophysical property and broad anti-HIV activity of Albuvirtide, a 3-maleimimidoproprotionic acid-modified peptide fusion inhibitor. PLoS One, 2012; 7 (3): e 32599). The preparation of the pseudovirus and the antiviral assay were the same as those in Example 2.1 of Example 2 (HIV-1 pseudovirus-mediated cell entry inhibition assay).

[2] = target: N39 (NHR-derived polypeptide of gp41) (Human immunodeficiency virus type 1 group M subtype B, UniProt P04578); format: binding, HIV-1; settings: 10 μM each, PBS pH 7.2
Description: The circular dichroism spectrophotometer was Jasco-815 by JASCO Inc., and the assay method was referred to the papers published by the inventors (see the References 18 and 30 listed in the Background Art). […] The N39 and an inhibitor were separately dissolved in a phosphate buffered saline (PBS) to prepare a PBS solution (pH 7.2) of a concentration of 20 μM. The N39 was mixed with an inhibitor at a volume ratio of 1:1 (final concentration of 10 μM for each), the mixed sample was placed at 37° C. for 30 minutes to fully react, and then the helix content and Tm value of the resultant complex were measured by the circular dichroism spectrophotometer. The scan wavelength range of the device was 195-260 nm with a wavelength interval of 1 nm, and the values measured by scanning for three times were averaged. Based on the CD signals, the interaction between the polypeptides and the helix content were determined. Then, the sample for CD signal measurement was transferred to the temperature scanning sample cell, the program of the CD device was set to temperature scanning with a detection wavelength of 220 nm and scanning range of 20-98° C., and the program scan was performed to obtain the curve of the CD signals vs temperature, based on which the Tm value was calculated. Based on the Tm value, the stability of the formed helical structure of the inhibitor and N39 was judged.

[3] = test system: HIV-1 strain NL4-3 (NL4-3D36G); test: antiviral activity in serum of macaque after subcutaneous injection; format: in vivo, macaques (rhesus monkeys); settings: 3 mg/kg subcutaneous
Description: The specific method was as follows: 6 experimental macaques (rhesus monkeys) were selected, half male and half female, aged 3-4 years old, weighing 3.4-4.7 kg. […] The serum was separated according to a conventional method. The injection interval of each inhibitor was more than 2 weeks to ensure that there was no residue of the previous analyte. The serum activity against the HIV-1 strain NL4-3 (NL4-3D36G) was measured according to the experimental method of the pseudovirus-based assay in the above examples. The serum was diluted by 3 folds. […] Therefore, the lipopeptides of the present invention were not only potent but also were long-lasting effective.

[4] = 72 hours (3 days) after injection

Chain of N39 (NHR-derived polypeptide of gp41) (P04578 528-566): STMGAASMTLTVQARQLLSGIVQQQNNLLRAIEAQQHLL

Row | Compound | IC50 [1] [nM] | inhibitory activity against different subtypes of HIV-1 as folds of T-20 [1] [folds] | Tm value of the complex with N39 [2] [°C] | maximum serum dilution multiple for inhibiting 50% of NL4-3 infectivity ([3]; 4 hour after injection) [folds] | maximum serum dilution multiple for inhibiting 50% of NL4-3 infectivity ([3]; 6 hour after injection) [folds] | maximum serum dilution multiple for inhibiting 50% of NL4-3 infectivity [3, 4] [folds] | helix content of the complex with N39 [2] [%] | interaction / binding to N39 (in words) [2]
1 | CCCCCCCCCCCCCCCC(=O)NCCCC[C@H](NC(=O)[C@H](CCC(=O)O)NC(=O)[C@H](CC(C)C)NC(=O)[C@H](CCCCN)NC(=O)[C@H](CCCCN)NC(=O)[C@H](CC(C)C)NC(=O)[C@H](CCC(=O)O)NC(=O)[C@H](CCC(=O)O)NC(=O)[C@H](CCC(=O)O)NC(=O)[C@H](CC(N)=O)NC(=O)[C@H](CCCCN)NC(=O)[C@H](CCCCN)NC(=O)[C@H](CCC(N)=O)NC(=O)[C@H](CCC(N)=O)NC(=O)[C@H](CCC(=O)O)NC(=O)[C@H](CCC(=O)O)NC(=O)[C@H](C)NC(=O)[C@H](CCCCN)NC(=O)[C@H](CCCCN)NC(=O)[C@H](CC(C)C)NC(=O)[C@H](CC(C)C)NC(=O)[C@H](CCC(=O)O)NC(=O)[C@H](CCC(=O)O)NC(=O)[C@@H](NC(=O)[C@H](CC(N)=O)NC(=O)[C@H](C)NC(=O)[C@H](CCC(=O)O)NC(=O)[C@H](CC(C)C)NC(C)=O)[C@@H](C)CC)C(N)=O [LP-51] (Ac-LEANIEELLKKAEEQQKKNEEELKKLEK(Palmitoyl)-NH2) | 0.033 | 1255 | 72 | 700482 | 584381 | 1122 |  | 
2 | CCCCCCCCCCCCCCCC(=O)NCCCC[C@H](NC(=O)[C@H](CCC(=O)O)NC(=O)[C@H](CC(C)C)NC(=O)[C@H](CCCCN)NC(=O)[C@H](CCCCN)NC(=O)[C@H](CC(C)C)NC(=O)[C@H](CCC(=O)O)NC(=O)[C@H](CCC(=O)O)NC(=O)[C@H](CCC(=O)O)NC(=O)[C@H](CC(N)=O)NC(=O)[C@H](CCCCN)NC(=O)[C@H](CCCCN)NC(=O)[C@H](CCC(N)=O)NC(=O)[C@H](CCC(N)=O)NC(=O)[C@H](CCC(=O)O)NC(=O)[C@H](CCC(=O)O)NC(=O)[C@H](C)NC(=O)[C@H](CCCCN)NC(=O)[C@H](CCCCN)NC(=O)[C@H](CC(C)C)NC(=O)[C@H](CC(C)C)NC(=O)[C@H](CCC(=O)O)NC(=O)[C@H](CCC(=O)O)NC(=O)[C@@H](NC(=O)[C@H](CCCCN)NC(=O)[C@H](CCC(N)=O)NC(=O)[C@H](CCC(=O)O)NC(=O)[C@H](Cc1c[nH]c2ccccc12)NC(C)=O)[C@@H](C)CC)C(N)=O [LP-52] (Ac-WEQKIEELLKKAEEQQKKNEEELKKLEK(Palmitoyl)-NH2) | 0.016 | 2588 | 79.1 | 700802 | 669112 | 182 | 63.8 | 
3 | CC[C@H](C)[C@H](NC(=O)[C@H](CCCCN)NC(=O)[C@H](CCC(N)=O)NC(=O)[C@H](CCC(=O)O)NC(=O)[C@H](Cc1c[nH]c2ccccc12)NC(C)=O)C(=O)N[C@@H](CCC(=O)O)C(=O)N[C@@H](CCC(=O)O)C(=O)N[C@@H](CC(C)C)C(=O)N[C@@H](CC(C)C)C(=O)N[C@@H](CCCCN)C(=O)N[C@@H](CCCCN)C(=O)N[C@@H](C)C(=O)N[C@@H](CCC(=O)O)C(=O)N[C@@H](CCC(=O)O)C(=O)N[C@@H](CCC(N)=O)C(=O)N[C@@H](CCC(N)=O)C(=O)N[C@@H](CCCCN)C(=O)N[C@@H](CCCCN)C(=O)N[C@@H](CC(N)=O)C(=O)N[C@@H](CCC(=O)O)C(=O)N[C@@H](CCC(=O)O)C(=O)N[C@@H](CCC(=O)O)C(=O)N[C@@H](CC(C)C)C(=O)N[C@@H](CCCCN)C(=O)N[C@@H](CCCCN)C(=O)N[C@@H](CC(C)C)C(=O)N[C@@H](CCC(=O)O)C(=O)N[C@@H](CCCCNC(=O)CCC(=O)Oc1c(C)c(C)c2c(c1C)CCC(C)(CCCC(C)CCCC(C)CCCC(C)C)O2)C(N)=O (stereo partly drawn) [LP-85] (Ac-WEQKIEELLKKAEEQQKKNEEELKKLEK(X1)-NH2) |  | 941 |  |  |  |  |  | strong helical binding stability
4 | CCCCCCCCCCCCCCCCCC(=O)NCCCC[C@H](NC(=O)[C@H](CCC(=O)O)NC(=O)[C@H](CC(C)C)NC(=O)[C@H](CCCCN)NC(=O)[C@H](CCCCN)NC(=O)[C@H](CC(C)C)NC(=O)[C@H](CCC(=O)O)NC(=O)[C@H](CCC(=O)O)NC(=O)[C@H](CCC(=O)O)NC(=O)[C@H](CC(N)=O)NC(=O)[C@H](CCCCN)NC(=O)[C@H](CCCCN)NC(=O)[C@H](CCC(N)=O)NC(=O)[C@H](CCC(N)=O)NC(=O)[C@H](CCC(=O)O)NC(=O)[C@H](CCC(=O)O)NC(=O)[C@H](C)NC(=O)[C@H](CCCCN)NC(=O)[C@H](CCCCN)NC(=O)[C@H](CC(C)C)NC(=O)[C@H](CC(C)C)NC(=O)[C@H](CCC(=O)O)NC(=O)[C@H](CCC(=O)O)NC(=O)[C@@H](NC(C)=O)[C@@H](C)CC)C(N)=O [LP-90] (Ac-IEELLKKAEEQQKKNEEELKKLEK(Stearoyl)-NH2) | 0.014 | 2958 | 71.1 |  |  |  |  | 
